Patent US8796201B2 (The Board of Trustees of the Leland Stanford Junior …, priority 2002, dated 2014)
Entries after “also recorded” stand apart in the source; their conditions may differ. Where no end group is shown, it is not given here.

Key:
[1] = target: T1, EPB2 (Hordeum vulgare, UniProt P25250); assay: Inhibition of EPB2 α2-gliadin digestion; format: biochemical, barley (Hordeum vulgare subsp. vulgare)
T1 construct: made in house; host or cells: E. coli BL21, plasmid pMTB1 (pET28b), inclusion bodies solubilised in 7 M urea
Excerpt: The pH optimum of proEPB2 activation and α2-gliadin digestion is 2.4-3.5, which can therefore provide a treatment for Celiac Sprue consisting of oral administration of proEPB2.

[2] = In vivo perfusion of peptides through rat jejunum; settings: 15-20 cm jejunum segment, residence time 20 min
Experimental: FIG. 5. In vivo brush border membrane digestion of peptides.
In Vivo Endopeptidase Activity. An adult (female or male) rat was anesthetized and maintained at 36-37° C. during the entire surgical procedure. The peritoneal cavity was opened, and a small incision was made at the beginning and the end of a 15-20 cm jejunum segment. Polyethylene catheters were inserted and secured into the two ends. The input catheter was connected with a pump-driven syringe filled with a solution. The jejunum segment was perfused initially with PBS buffer to remove any residual debris at a flow rate of 0.4 ml/min. Purified peptide solutions (peptide concentration ranges from 25-100 μM) were then perfused at 0.4 ml/min through the jejunum segment with a 10-40 min residence time. In the case of a co-perfusion, the input catheter is connected with two simultaneous syringes, one with a peptide solution and the other with the prolyl endopeptidase solution (concentration ranges from 50-500 μU/μl). Fluid from the output catheter was collected into small centrifuge tubes in dry ice for subsequent analysis. The collected digestive products were analyzed by HPLC on a C18 column.

[3] = tested on: rat brush border membrane (BBM) peptidases; format: in vitro ADME; settings: kidney or brush border membranes
Experimental: To investigate the digestion of gluten, liquid chromatography coupled mass spectroscopy analysis (LC-MS-MS) was utilized to investigate the pathways and associated kinetics of hydrolysis of immunodominant gliadin peptides treated with rat BBM preparations. Because the rodent is an excellent small animal model for human intestinal structure and function, rat BBM was chosen as a suitable model system for these studies.
BBM fractions were prepared from rat small intestinal mucosa as described in Ahnen et al. (1982) J. Biol. Chem. 257, 12129-35. […] No proline aminopeptidase (EC 3.4.11.5) or prolyl endopeptidase activity (PEP, EC 3.4.21.26) activity was detectable (<5 μU/μg). Alkaline phosphatase and sucrase were used as control BBM enzymes with activities of 66 μU/μg and 350 μU/μg, respectively.
BBM fractions were partially purified from the small intestinal mucosa of adult female rats maintained on an ad libitum diet of wheat-based standard rodent chow. Total protein content was determined by a modified method of Lowry with BSA as a standard. Alkaline phosphatase activity was determined with nitrophenyl phosphate. Sucrase activity was measured using a coupled glucose assay. […] PEP activity was determined continuously with 0.4 mM Z-Gly-Pro-pNA in PBS:H2O:dioxane (8:1.2:0.8) at 30° C. One unit is the consumption of 1 μmol substrate per minute.
Proteolysis with the BBM preparation was investigated using the peptide (SEQ ID NO:1) […], a product of chymotryptic digestion of α-9 gliadin (Arentz-Hansen et al. (2000) J. Exp. Med. 191, 603-12). […] It was subjected to BBM digestion, followed by LC-MS-MS analysis. A standard 50 μl digestion mixture contained 100 μM of synthetic peptide, 10 μM tryptophan and Cbz-tryptophan as internal standards, and resuspended BBM preparations with a final protein content of 27 ng/μl and exogenous proteins, as indicated, in phosphate buffered saline. After incubation at 37° C. for the indicated time, the enzymes were inactivated by heating to 95° C. for 3 minutes. The reaction mixtures were analyzed by LC-MS (SpectraSystem, ThermoFinnigan) using a C18 reversed phase column (Vydac 218TP5215, 2.1×150 mm) with water:acetonitrile:formic acid (0.1%):trifluoroacetic acid (0.025%) as the mobile phase (flow: 0.2 ml/min) and a gradient of 10% acetonitrile for 3 minutes, 10-20% for 3 minutes, 20-25% for 21 minutes followed by a 95% wash. Peptide fragments in the mass range of m/z=300-2000 were detected by electrospray ionization mass spectroscopy using a LCQ ion trap and their identities were confirmed by MSMS fragmentation patterns.
BBM fractions were prepared from rat small intestinal mucosa.

[4] = tested on: gastric and pancreatic proteases; assay: Gastric and pancreatic protease digestion of recombinant α2-gliadin; format: in vitro ADME; settings: extended reaction times
Excerpt: […]. […] No long intermediate is observed to accumulate.

[5] = tested on: human brush border membrane (BBM); format: in vitro ADME; settings: kidney or brush border membranes, 100 μM
Excerpt: (SEQ ID NO:12) […]

[6] = tested on: carboxypeptidase A (C-0261, Sigma) and/or leucine aminopeptidase (L-5006, Sigma); assay: 10 μg/ml carboxypeptidase A and/or 5.9 μg/ml leucine aminopeptidase; settings: 37° C., up to 160 min
[7] = tested on: prolyl endopeptidase (PEP, specific activity 28 μU/pg) from Flavobacterium meningosepticum (US Biological, MA); assay: 27 ng/μl brush border membranes with exogenous prolyl endopeptidase from Flavobacterium meningosepticum; settings: rat, up to one hour
[8] = tested on: DPP IV from Aspergillus fumigatus; assay: rat BBM with exogenous DPP IV from Aspergillus fumigatus (0.28 μU DPP IV/ng BBM protein); settings: 37° C., up to four hours
[9] = tested on: rabbit lung DCP (Cortex Biochemicals, CA); assay: BBM with exogenous rabbit lung DCP in phosphate buffered saline:Tris buffered saline=9:1; settings: rat, up to overnight
[10] = resuspended rat brush border membrane (BBM) preparations in phosphate buffered saline; settings: 37° C.
[11] = tested on: trypsin; assay: trypsin
[12] = BBM with captopril in phosphate buffered saline:Tris buffered saline=9:1; settings: rat, up to overnight
[13] = tested on: elastase; assay: elastase at a high (non-physiological) concentration of 100 ng/μl
[14] = tested on: chymotrypsin; assay: chymotrypsin
[15] = rat brush border membrane (BBM) protein preparations, 27 ng/μl, in phosphate buffered saline; settings: 37° C, up to overnight

T1 sequence (P25250 134-373): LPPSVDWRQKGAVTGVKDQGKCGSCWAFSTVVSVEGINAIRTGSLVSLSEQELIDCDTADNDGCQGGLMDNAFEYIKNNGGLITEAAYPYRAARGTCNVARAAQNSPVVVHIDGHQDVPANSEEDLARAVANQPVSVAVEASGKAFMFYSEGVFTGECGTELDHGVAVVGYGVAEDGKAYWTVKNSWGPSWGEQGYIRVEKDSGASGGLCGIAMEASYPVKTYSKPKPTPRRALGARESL

In the case of CC(=O)N[C@@H](CC(C)C)C(=O)N[C@@H](CC(C)C)C(=O)N[C@H](C=O)CCCNC(=N)N [leupeptin], the “effect on α2-gliadin digestion by EPB2” value [1] is reported as “inhibits this activity”.
In the case of “LQLQPFPQPQLPYPQPQLPYPQPQLPYPQPQPF [33-mer]”, the “stability in the perfusion experiment” value [2] is reported as “most of the 33-mer gliadin peptide remained intact”, the half-life of digestion [3] is reported as > 20 h and the “stability toward gastric and pancreatic proteases” value [4] is reported as “remained intact despite prolonged exposure to proteases”. The “Amount of Peptides Digested after 15 hours” value [5] was <20%.
In the case of QLQPFPQPQLPY, the fragment found [6] is reported as “QLQPFPQPQLP; also recorded: QPFPQPQLP”, the cleaved bond [7] is reported as “P-Q, major” and the fragment found [8] is reported as “QLQPFPQPQLP”.
For PQPQLPYPQPQLPY, the fragment found [9] was “PQPQLPYPQPQLP”, the cleaved bond [10] was “P-Y, first_seen” and the fragment found [6] was “PQPQLPYPQPQLP”. For the same compound, the not cleaved [11] was “No proteolysis was detected”, the fragment found [12] was “PQPQLPYPQPQLP” and the cleaved bond [13] was “Q-L”. For the same compound, the not cleaved [14] was “No proteolysis was detected” and the not cleaved [15] was “no observed N-terminal processing”.
